Source: patent US20090036469A1, “2,6-SUBSTITUTED-4-MONOSUBSTITUTED AMINO-PYRIMIDINE AS PROSTAGLANDIN D2 RECEPTOR ANTAGONISTS” (SANOFI-AVENTIS, priority 2006, published 2009)
pIC50: −log10 of the molar value. Where a name gives a salt, the structure may show the parent alone.

Target: T1, DP receptor (Homo sapiens, UniProt Q13258)
T1 construct: the human cell line LS174T, which expresses the endogenous DP receptor; endogenous in cells; host or cells: LS174T human cell line
T1 sequence (Q13258 1-359): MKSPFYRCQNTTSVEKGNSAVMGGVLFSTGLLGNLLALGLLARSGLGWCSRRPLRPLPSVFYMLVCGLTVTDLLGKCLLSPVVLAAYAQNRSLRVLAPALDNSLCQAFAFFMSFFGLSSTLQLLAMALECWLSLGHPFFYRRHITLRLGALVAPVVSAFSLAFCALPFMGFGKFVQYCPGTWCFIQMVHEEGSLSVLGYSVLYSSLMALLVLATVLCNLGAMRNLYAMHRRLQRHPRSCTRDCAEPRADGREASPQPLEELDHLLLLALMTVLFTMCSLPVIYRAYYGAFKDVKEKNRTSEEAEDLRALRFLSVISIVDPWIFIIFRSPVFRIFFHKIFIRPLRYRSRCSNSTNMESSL
Experiment: SPA cAMP assay in human LS174 T cells (human DP functional assay)
Type: cell-based
Settings: concentration of the compound that produces 50% inhibition in the SPA cAMP assay in human LS174 T cells; PGD2 15 nM final concentration
Excerpt: As used in the examples and preparations that follow, as well as the rest of the application, the terms used therein shall have the meanings indicated: “kg” refers to kilograms, “g” refers to grams, “mg” refers to milligrams, “μg” refers to micrograms, “mol” refers to moles, “mmol” refers to millimoles, “M” refers to molar, “mM” refers to millimolar, “μM” refers to micromolar, “nM” refers to nanomolar, “L” refers to liters, “mL” or “ml” refers to milliliters, “μL” refers to microliters, “° C.” refers to degrees Celsius, “mp” or “m.p.” refers to melting point, “bp” or “b.p.” refers to boiling point, “mm of Hg” refers to pressure in millimeters of mercury, “cm” refers to centimeters, “nm” refers to nanometers, “abs.” refers to absolute, “conc.” refers to concentrated, “c” refers to concentration in g/mL, “rt” refers to room temperature, “TLC” refers to thin layer chromatography, “HPLC” refers to high performance liquid chromatography, “i.p.” refers to intraperitoneally, “i.v.” refers to intravenously, “s”=singlet, “d”=doublet; “t”=triplet; “q”=quartet; “m”=multiplet, “dd”=doublet of doublets; “br”=broad, “LC”=liquid chromatograph, “MS”=mass spectrograph, “ESI/MS”=electrospray ionization/mass spectrograph, “RT”=retention time, “M”=molecular ion, “PSI”=pounds per square inch, “DMSO”=dimethyl sulfoxide, “DMF”=N,N-dimethylformamide, “CDI”=1,1′-carbonyldiimidazole, “DCM” or “CH2Cl2”=dichloromethane, “HCl”=hydrochloric acid, “SPA”=Scintillation Proximity Assay, “ATTC”=American Type Culture Collection, “FBS”=Foetal Bovine Serum, “MEM”=Minimal Essential Medium, “CPM”=Counts Per Minute, “EtOAc”=ethyl acetate, “PBS”=Phosphate Buffered Saline, “TMD”=transmembrane domain, “IBMX”=3-isobutyl-1-methylxanthine, “cAMP”=cyclic adenosine monophosphate, “IUPAC”=International Union of Pure and Applied Chemistry, “MHz”=megahertz, “PEG”=polyethylene glycol, “MeOH”=methanol, “N”=normality, “THF”=tetrahydrofuran, “h”=hours, “min”=minute(s), “MeNH2”=methyl amine, “N2”=nitrogen gas, “O.D.”=outer diameter, “MeCN” or “CH3CN”=acetonitrile, “Et2O”=ethyl ether, “Prep LC”=preparatory “flash” liquid chromatography, “SPE”=solid phase extraction, “K2CO3”=potassium carbonate, “Na2CO3”=sodium carbonate, “pmol”=picomolar, “heptane”=n-heptane, “HMBA-AM” resin=4-hydroxymethylbenzoic acid amino methyl resin, “PdCl2(dppf)2”=1,1′-bis(diphenylphosphino)ferrocene-palladium (II) dichloride DCM complex, “˜”=approximately, and “IC50”=concentration of the compound that produces 50% inhibition in the SPA cAMP assay in human LS174 T cells.
The inhibitory effects of the compounds according to the invention are assessed in a human DP functional assay. A cAMP assay is employed using the human cell line LS174T, which expresses the endogenous DP receptor. The protocol is similar to that described previously (Wright D H, Ford-Hutchinson A W, Chadee K, Metters K M, The human prostanoid DP receptor stimulates mucin secretion in LS174T cells, Br J Pharmacol. 131(8):1537-45 (2000)).
Protocol for SPA cAMP Assay in Human LS174 T Cells
Add 50 μL of […] IBMX into 100 mL PBS to make a final concentration of 100 μM and sonicate at 30° C. for 20 minutes.
Dissolve 1 mg PGD2 (FW, 352.5) in 284 μL DMSO to make 10 mM stock solution and store at […]. Before each assay, it is freshly prepared. Add 3 μL of 10 mM stock solution to 20 mL DMSO, mix it thoroughly, and transfer 10 mL to 40 mL PBS.
Compound dilution is carried out in Biomex 2000 (Beckman) using Method 1_cAMP DP 11 points.
5 μL of each compound from the 10 mM stock compound plates is transferred to the wells of a 96-well plate respectively as below.
Fill the plate with 45 μL of DMSO except column 7 is filled with 28 μL DMSO. Pipette column 1 thoroughly, and transfer 12 μL into column 7 parallel. Perform 1:10 serial dilution from column 1 to column 6 and from column 7 to column 11 by transfer 5 μL to 45 μL DMSO to make following concentrations:
Fill a new 96-well plate with 247.5 μL of compound dilution buffer. […]

Row | Compound | pIC50
1 | COc1nc(NCCc2ccc(Cl)cc2Cl)cc(N2CCC(C(=O)O)C2)n1 (stereo not shown) [Example 1] | 8.05
2 | COc1nc(NCCc2ccc(OC(F)(F)F)cc2)cc(N2CCCC(C(C)(C)C(=O)O)C2)n1 (stereo not shown) [Example 2, 2-(1-{2-Methoxy-6-[2-(4-trifluoromethoxy-phenyl)-ethylamino]-pyrimidin-4-yl}-piperidin-3-yl)-2-methyl-propionic acid] | 8.70
3 | COc1nc(NCCc2ccc(Cl)cc2Cl)cc(-c2cc(C(C)(C)O)cc(C(C)(C)O)c2)n1 [Example 3, 2-[3-{6-[2-(2,4-Dichloro-phenyl)-ethylamino]-2-methoxy-pyrimidin-4-yl}-5-(1-hydroxy-1-methyl-ethyl)-phenyl]-propan-2-ol] | 6.14
4 | COc1nc(NCCc2ccc(Cl)cc2Cl)cc(N2CCCC(N)C2)n1 (stereo not shown) [Example 4, [6-(3-Amino-piperidin-1-yl)-2-methoxy-pyrimidin-4-yl]-[2-(2,4-dichloro-phenyl)-ethyl]-amine] | 6.01
5 | COc1nc(NCCc2ccc(Cl)cc2Cl)cc(N2CCC(NC(C)=O)CC2)n1 [Example 5(b), N-(1-{6-[2-(2,4-Dichloro-phenyl)-ethylamino]-2-methoxy-pyrimidin-4-yl}-piperidin-4-yl)-acetamide] | 7.59
6 | COc1nc(NCCc2ccc(Cl)cc2Cl)cc(-c2cccc(C(C)(C)C(=O)NS(=O)(=O)C(C)(C)C)c2)n1 [Example 7(a), 2-Methyl-propane-2-sulfonic acid [2-(3-{6-[2-(2,4-dichloro-phenyl)-ethylamino]-2-methoxy-pyrimidin-4-yl}-phenyl)-2-methyl-propionyl]-amide] | 8.70
7 | COc1nc(NCCc2ccc(Cl)cc2Cl)cc(-c2cccc(C(C)(C)C(=O)N3CCSCC3)c2)n1 [Example 7(c), 2-(3-{6-[2-(2,4-Dichloro-phenyl)-ethylamino]-2-methoxy-pyrimidin-4-yl}-phenyl)-2-methyl-1-thiomorpholin-4-yl-propan-1-one] | 6.42
8 | COc1nc(NCCc2ccc(Cl)cc2Cl)cc(N2CCCC(CC(=O)O)C2)n1 (stereo not shown) [Example 8, (1-{6-[2-(2,4-Dichloro-phenyl)-ethylamino]-2-methoxy-pyrimidin-4-yl}-piperidin-3-yl)-acetic acid] | 9.30
9 | COc1nc(NCCc2ccc(OC(F)(F)F)cc2)cc(N2CCCC(C(=O)O)C2)n1 (stereo not shown) [Example 9, 1-{2-Methoxy-6-[2-(4-trifluoromethoxy-phenyl)-ethylamino]-pyrimidin-4-yl}-piperidine-3-carboxylic acid] | 8.05
10 | COc1nc(NCCc2ccc(OC(F)(F)F)cc2)cc(N2CCCC(C(=O)NS(C)(=O)=O)C2)n1 (stereo not shown) [Example 10, N-(1-{2-Methoxy-6-[2-(4-trifluoromethoxy-phenyl)-ethylamino]-pyrimidin-4-yl}-piperidine-3-carbonyl)-methanesulfonamide] | 7.66
11 | COc1nc(NCCc2ccc(Cl)cc2Cl)cc(N2CCCC(C(=O)NS(C)(=O)=O)C2)n1 (stereo not shown) [Example 11(a), N-(1-{6-[2-(2,4-Dichloro-phenyl)-ethylamino]-2-methoxy-pyrimidin-4-yl}-piperidine-3-carbonyl)-methanesulfonamide] | 9.00
12 | COc1nc(NCCc2ccc(Cl)cc2Cl)cc(N2CCCC(C(=O)NS(=O)(=O)C(F)(F)F)C2)n1 (stereo not shown) [Example 11(d), N-(1-{6-[2-(2,4-Dichloro-phenyl)-ethylamino]-2-methoxy-pyrimidin-4-yl}-piperidine-3-carbonyl)-C,C,C-trifluoro-methanesulfonamide] | 7.74
13 | COc1nc(NCCc2ccc(Cl)cc2Cl)cc(N2CCCC(C(=O)Nc3nnn[nH]3)C2)n1 (stereo not shown) [Example 11(e), 1-{6-[2-(2,4-Dichloro-phenyl)-ethylamino]-2-methoxy-pyrimidin-4-yl}-piperidine-3-carboxylic acid (1H-tetrazol-5-yl)-amide] | 8.36
14 | COc1nc(NCCc2ccc(Cl)cc2Cl)cc(N2CCCC(C(=O)NS(=O)(=O)N(C)C)C2)n1 (stereo not shown) [Example 11(h), N,N-Dimethylamide-2-sulfonic acid 1-{6-[2-(2,4-dichloro-phenyl)-ethylamino]-2-methoxy-pyrimidin-4-yl}-piperidine-3-carboxamide] | 7.85
15 | COc1nc(NCCc2ccc(OC(F)(F)F)cc2)cc(-c2ccc(C(=O)O)s2)n1 [Example 12, 5-{2-Methoxy-6-[2-(4-trifluoromethoxy-phenyl)-ethylamino]-pyrimidin-4-yl}-thiophene-2-carboxylic acid] | 8.70
16 | COc1nc(NCCc2ccc(Cl)cc2Cl)cc(-c2ccc3c(c2)CC(C(=O)O)O3)n1 (stereo not shown) [Example 13, 5-{6-[2-(2,4-Dichloro-phenyl)-ethylamino]-2-methoxy-pyrimidin-4-yl}-2,3-dihydro-benzofuran-2-carboxylic acid hydrochloride] | 8.70
